These results are taken from patent publication EP4678638A1, “NEW E3 UBIQUITIN LIGASE LIGAND, PROTEIN DEGRADATION AGENT AND USE THEREOF” (priority 2023, dated 2024).

SMILES strings stand for the structures.

Test [1] addresses T1, RSK1 (Homo sapiens, UniProt Q15418).
T1 construct: evaluate the effects of the compounds of the present disclosure on the expression of target proteins in cells; endogenous in cells; host or cells: hPBMC
Kind of test: Western blot degradation of RSK1 (hPBMC). The note with it: Table D8. It counts as cell-based. How it is done: (§1) Conventional Western blot assay was performed to evaluate the effects of the compounds of the present disclosure on the expression of target proteins in cells.
(§2) (1) Cell Seeding and Protein Harvesting: The selected cells were processed according to the cell seeding procedure and protein harvesting procedure in Table III-2. Table III-2 Cell Seeding and Protein Harvesting Procedures
(§3) (2) To the collected supernatant, 5X SDS sample loading buffer was added, followed by denaturation at 95°C for 5 minutes. The denatured samples were then separated by SDS-PAGE electrophoresis on a polyacrylamide gel. Proteins were transferred to a nitrocellulose membrane (0.45 µm NC membrane), blocked with blocking buffer at room temperature for 1 hour, and subjected to antibody incubation and development procedures according to the antibody manufacturer's instructions (Cell Signaling Technology).
(§4) Half-Maximal Degradation Concentration value (the drug concentration required for degrading proteins by 50%, abbreviated as DC50) reads method: comparing the grayscale values of Western blot bands from drug-treated samples with those from blank DMSO-treated controls, and identifying the drug concentration range at which the grayscale value is half that of the DMSO-treated control bands.
(§5) DC50 values can be calculated using ImageJ software to measure grayscale values of Western blot bands from drug-treated samples. The concentration-response curve is fitted to estimate the drug concentration corresponding to half the grayscale value.
(§6) Target protein remaining (%) refers to the percentage of target protein remaining in hPBMC cells after treatment with protein degrader compounds.
(§7) Calculation method for target protein remaining (%): Use ImageJ software to measure grayscale values of Western blot bands from drug (protein degrader)-treated samples. The grayscale value of drug-treated bands is divided by that of internal control protein bands, and the resulting quotient is normalized to obtain the relative percentage of remaining target protein after protein degrader treatment.
(§8) Target protein degradation rate (%) = 100% - target protein remaining (%).
On the technique in general: Immunoblotting shows a protein as a band on a membrane.

Test [2] has as its target T2, RSK2 (Homo sapiens, UniProt P51812).
T2 construct: evaluate the effects of the compounds of the present disclosure on the expression of target proteins in cells; endogenous in cells; host or cells: hPBMC
The test can be described thus: Western blot degradation of RSK2 (hPBMC). It counts as cell-based. The following applies: Table D8. On the procedure:
as §1, §2, §3, §4, §5, §6, §7, §8

Test [3] relates to MCF7. Kind of test: CCK-8 proliferation, MCF7 (MCF-7). It counts as cell-based. The note with it: Homo sapiens, MCF7; CCK-8; read-out: Inhibitory activity (IC50) on tumor cell proliferation, MCF7. In a few lines: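 CCK-8 viability readout; IC50 from growth-inhibition curve fitting. Cells plated, dosed 24h later with a 10-point series, top 10µM, 5-fold steps. Culture at 37°C, 5% CO2.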

In test [4] the target is T3, CDK4 (Homo sapiens, UniProt P11802).
T3 construct: evaluate the effects of the compounds of the present disclosure on the expression of target proteins in cells; endogenous in cells; host or cells: MDA-MB-231
Kind of test: Western blot degradation of CDK4 (MDA-MB-231 Cell). It counts as cell-based. The note with it: Table D3. On the procedure:
as §1, §2, §3, §4, §5, §6, §7, §8

Test [5] addresses T4, CDK6 (Homo sapiens, UniProt Q00534).
T4 construct: evaluate the effects of the compounds of the present disclosure on the expression of target proteins in cells; endogenous in cells; host or cells: MDA-MB-231
The test can be described thus: Western blot degradation of CDK6 (MDA-MB-231 Cell). The format is cell-based. The note with it: Table D3. How it is done: as §1, §2, §3, §4, §5, §6, §7, §8

The target in test [6] is T5, human Cereblon WT GST-tagged protein (Homo sapiens, UniProt Q96SW2).
T5 construct: purchased CISBIO 64BDCRBNPEH
Kind of test: CRBN binding, HTRF (CEREBLON BINDING kit). The following applies: Table II-2, CRBN binding screening, HTRF; for inhibition at 0.5 µM: read-out: Inhibition rate (%) at 0.5µM; for inhibition at 2 µM: read-out: Inhibition rate (%) at 2 µM. In outline:
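After 3 h at room temperature, emission at 665 and 620 nm was measured in a homogeneous time-resolved fluorescence format. Compounds competed with a Thalidomide-Re probe for GST-tagged wild-type human CRBN, which was labelled with a Eu anti-GST antibody.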
(In general: Time-resolved FRET reads energy transfer from a long-lived donor to a nearby acceptor.)

The subject of test [7] is CCRF-CEM. Kind of test: CCK-8 proliferation, CCRF-CEM. The format is cell-based, Human. The note with it: Homo sapiens, CCRF-CEM; CCK-8; 96 hours; read-out: Inhibitory activity (IC50) on tumor cell proliferation, CCRF-CEM. On the procedure:
The tumor cells used herein were cultured in a cell culture medium listed in table A1 at 37°C in an incubator with 5% CO2. Prior to experimentation, all cell lines used were correctly identified by STR profiling, and tested negative for mycoplasma contamination using a mycoplasma detection kit through routine screenings. Table A1. Tumor cells and cell culture medium used in the present disclosure
IC50 values of the compounds of the present disclosure (including the compounds in Table 1, and compounds of examples) were measured using the Meilun Cell Counting Kit-8 kit from Dalian Meilun Biotech Co., Ltd. Assay details are as follows: tumor cells were seeded in a 96-well plate at a density listed in Table A2. After 24h, 100 µL of the inoculated cells were treated with 0.5µL of the compounds of the present disclosure (including the compounds in Tables 1 and 2, and compounds of examples) at 10 different successively decreasing concentrations (starting at the highest concentration of 10µM; 5-fold serial dilutions). After the cells were treated with the compounds of the present disclosure for a period of time, the cell viability detection reagent was added to the culture medium for cell viability assessment according to the instructions provided with the CCK-8 kit. […] The growth inhibition of the compounds of the present disclosure on cells was plotted by Prism Graphpad software, and the IC50 values of the compounds of the present disclosure were calculated therefrom. […] Seeding protocol and treatment time for tumor cells

T4 sequence (Q00534 whole entry): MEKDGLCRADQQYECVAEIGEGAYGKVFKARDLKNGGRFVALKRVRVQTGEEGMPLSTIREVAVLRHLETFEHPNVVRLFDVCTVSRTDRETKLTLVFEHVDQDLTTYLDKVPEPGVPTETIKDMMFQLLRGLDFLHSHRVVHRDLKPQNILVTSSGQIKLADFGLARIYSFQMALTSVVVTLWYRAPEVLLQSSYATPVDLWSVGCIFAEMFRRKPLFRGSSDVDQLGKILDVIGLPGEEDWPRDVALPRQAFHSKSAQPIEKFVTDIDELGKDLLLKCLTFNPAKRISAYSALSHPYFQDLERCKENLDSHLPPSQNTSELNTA
T3 sequence (P11802 whole entry): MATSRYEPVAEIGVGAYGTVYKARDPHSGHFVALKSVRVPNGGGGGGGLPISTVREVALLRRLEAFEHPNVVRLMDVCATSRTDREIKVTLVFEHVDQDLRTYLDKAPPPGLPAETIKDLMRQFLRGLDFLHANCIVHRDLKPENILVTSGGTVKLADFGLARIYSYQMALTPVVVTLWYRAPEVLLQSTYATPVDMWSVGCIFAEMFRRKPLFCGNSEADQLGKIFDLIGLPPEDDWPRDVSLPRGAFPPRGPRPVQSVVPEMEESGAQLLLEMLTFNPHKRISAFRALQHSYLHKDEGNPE
T5 sequence (Q96SW2 whole entry): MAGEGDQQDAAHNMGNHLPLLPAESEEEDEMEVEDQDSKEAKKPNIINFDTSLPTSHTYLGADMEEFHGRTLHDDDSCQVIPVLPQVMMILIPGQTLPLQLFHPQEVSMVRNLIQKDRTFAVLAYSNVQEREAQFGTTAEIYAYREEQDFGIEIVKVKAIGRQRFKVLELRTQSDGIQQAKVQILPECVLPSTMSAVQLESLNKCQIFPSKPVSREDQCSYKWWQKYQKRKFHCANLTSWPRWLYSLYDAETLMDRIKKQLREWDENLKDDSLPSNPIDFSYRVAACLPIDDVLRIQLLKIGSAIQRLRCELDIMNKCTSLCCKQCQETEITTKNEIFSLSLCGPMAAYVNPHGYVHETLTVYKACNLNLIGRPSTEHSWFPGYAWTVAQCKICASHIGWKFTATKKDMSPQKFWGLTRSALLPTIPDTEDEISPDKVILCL
T2 sequence (P51812 whole entry): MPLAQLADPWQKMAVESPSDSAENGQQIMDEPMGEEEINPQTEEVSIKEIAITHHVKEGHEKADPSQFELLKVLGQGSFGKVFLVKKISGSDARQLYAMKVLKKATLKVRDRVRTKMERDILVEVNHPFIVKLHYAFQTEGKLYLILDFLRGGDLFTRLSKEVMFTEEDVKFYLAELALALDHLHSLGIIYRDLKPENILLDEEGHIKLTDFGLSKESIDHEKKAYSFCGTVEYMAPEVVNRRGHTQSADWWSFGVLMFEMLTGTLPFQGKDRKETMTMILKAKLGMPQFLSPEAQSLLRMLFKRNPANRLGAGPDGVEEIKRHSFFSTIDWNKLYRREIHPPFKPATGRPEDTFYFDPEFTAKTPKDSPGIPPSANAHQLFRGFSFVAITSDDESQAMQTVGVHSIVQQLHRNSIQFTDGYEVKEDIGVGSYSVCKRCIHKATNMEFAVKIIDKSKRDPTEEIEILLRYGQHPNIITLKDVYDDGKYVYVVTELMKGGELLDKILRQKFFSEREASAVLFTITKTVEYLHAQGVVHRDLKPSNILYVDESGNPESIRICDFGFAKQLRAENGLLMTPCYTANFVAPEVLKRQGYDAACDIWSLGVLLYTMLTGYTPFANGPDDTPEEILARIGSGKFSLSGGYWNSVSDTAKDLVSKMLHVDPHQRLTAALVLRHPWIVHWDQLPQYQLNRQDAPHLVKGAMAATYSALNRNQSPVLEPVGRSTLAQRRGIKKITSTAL
T1 sequence (Q15418 whole entry): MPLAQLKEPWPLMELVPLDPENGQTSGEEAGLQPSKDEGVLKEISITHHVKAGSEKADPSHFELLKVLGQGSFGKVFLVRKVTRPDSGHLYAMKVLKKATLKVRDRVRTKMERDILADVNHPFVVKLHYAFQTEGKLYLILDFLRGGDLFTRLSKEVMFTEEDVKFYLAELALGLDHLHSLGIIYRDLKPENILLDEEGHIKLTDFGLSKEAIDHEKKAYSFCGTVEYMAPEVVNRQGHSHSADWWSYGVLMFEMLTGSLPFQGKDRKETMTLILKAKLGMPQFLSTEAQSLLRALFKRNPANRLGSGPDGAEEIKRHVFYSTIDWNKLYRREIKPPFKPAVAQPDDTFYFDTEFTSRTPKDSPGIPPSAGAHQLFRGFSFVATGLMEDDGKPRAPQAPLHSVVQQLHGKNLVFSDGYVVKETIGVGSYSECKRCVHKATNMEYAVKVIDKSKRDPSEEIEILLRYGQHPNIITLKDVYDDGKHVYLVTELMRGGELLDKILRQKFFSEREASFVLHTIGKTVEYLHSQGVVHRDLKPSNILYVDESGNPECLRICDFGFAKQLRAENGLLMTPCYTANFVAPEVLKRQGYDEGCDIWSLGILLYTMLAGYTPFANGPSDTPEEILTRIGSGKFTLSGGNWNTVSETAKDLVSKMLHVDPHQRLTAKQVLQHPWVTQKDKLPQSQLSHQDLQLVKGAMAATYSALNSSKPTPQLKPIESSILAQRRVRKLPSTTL

As for `C[C@@H]1CNC(=O)c2cc3ccc(C(=O)Nc4cnn(Cc5ccc(N6CCC(N7CCN(Cc8ccc(N9CCC(=O)NC9=O)cc8)CC7)CC6)cc5)c4)nc3n21` [GT-07952, (R)-N-(1-(4-(4-(4-(4-(2,4-dioxotetrahydropyrimidin-1(2H)-yl)benzyl)piperazin-1-yl)piperidin-1-yl)benzyl)-1H-pyrazol-4-yl)-9-methyl-6-oxo-6,7,8,9-tetrahydropyrido[3',2':4,5]pyrrolo[1,2-a]pyrazine-2-carboxamide], the “Degradation of substrate protein RSK1 (substrate protein remaining %)” value in test [1] was “A (A is defined as 0% ≤ substrate protein remaining % ≤ 80%)”. For the same compound, in test [2], the “Degradation of substrate protein RSK2 (substrate protein remaining %)” value was “A (A is defined as 0% ≤ substrate protein remaining % ≤ 80%)”.
Take `CC(=O)c1c(C)c2cnc(Nc3ccc(N4CCN(Cc5cccc(NC6CCC(=O)NC6=O)c5)CC4)cn3)nc2n(C2CCCC2)c1=O` (centres unmarked) [GT-06580, 3-((3-((4-(6-((6-acetyl-8-cyclopentyl-5-methyl-7-oxo-7,8-dihydropyrido[2,3-d]pyrimidin-2-yl)amino)pyridin-3-yl)piperazin-1-yl)methyl)phenyl)amino)pip eridine-2,6-dione]: in test [3], the IC50 was in the range of 0.5 to 1 µM. For the same compound, the “Degradation of substrate protein CDK4 (substrate protein remaining %)” value in test [4] is reported as “B (B is defined as substrate protein remaining % > 80%)”. Besides, in test [5], the “Degradation of substrate protein CDK6 (substrate protein remaining %)” value is recorded as “A (A is defined as 0% ≤ substrate protein remaining % ≤ 80%)”.
One may read the inhibition as the relative decrease from the control value, in per cent. With `CN(C)C(=O)c1cc2cnc(Nc3ccc(N4CCN(Cc5cc(N6CCC(=O)NC6=O)cnc5F)CC4)cn3)nc2n1C1CCCC1` [GT-07830, 7-cyclopentyl-2-((5-(4-((5-(2,4-dioxotetrahydropyrimidin-1(2H)-yl)-2-fluoropyridin-3-yl)methyl)piperazin-1-yl)pyridin-2-yl)amino)-N,N-dimethyl-7H-pyrrolo[2,3-d]pyrimidine-6-carboxamide], in test [6], the inhibition at 0.5 µM fell in the range of 30 to 40% and the inhibition at 2 µM lay in the range of 60 to 80%. Further, in test [4], the “Degradation of substrate protein CDK4 (substrate protein remaining %)” value was “A (A is defined as 0% ≤ substrate protein remaining % ≤ 80%)”. Also, in test [5], the “Degradation of substrate protein CDK6 (substrate protein remaining %)” value is “A (A is defined as 0% ≤ substrate protein remaining % ≤ 80%)”.
On to `CN(C)C(=O)c1cc2cnc(Nc3ccc(N4CCN(Cc5cncc(N6CCC(=O)NC6=O)c5)CC4)cn3)nc2n1C1CCCC1` [GT-07476, 7-cyclopentyl-2-((5-(4-((5-(2,4-dioxotetrahydropyrimidin-1(2H)-yl)pyridin-3-yl)methyl)piperazin-1-yl)pyridin-2-yl)amino)-N,N-dimethyl-7H-pyrrolo[2,3-d]pyrimidine-6-carboxamide], for which, in test [6], the inhibition at 0.5 µM lay in the range of 30 to 40% and the inhibition at 2 µM is 60 to 80%. The “Degradation of substrate protein CDK4 (substrate protein remaining %)” value in test [4] is listed as “A (A is defined as 0% ≤ substrate protein remaining % ≤ 80%)”. The “Degradation of substrate protein CDK6 (substrate protein remaining %)” value in test [5] is on record as “A (A is defined as 0% ≤ substrate protein remaining % ≤ 80%)”.
As for `CC(=O)c1c(C)c2cnc(Nc3ccc(N4CCN(Cc5ccc(C6CCC(=O)NC6=O)cc5)CC4)cn3)nc2n(C2CCCC2)c1=O` (centres unmarked) [GT-06575, 3-(4-((4-(6-((6-acetyl-8-cyclopentyl-5-methyl-7-oxo-7,8-dihydropyrido[2,3-d]pyrimidin-2-yl)amino)pyridin-3-yl)piperazin-1-yl)methyl)phenyl)piperidine-2,6-dione], the IC50 in test [3] lay in the range of 0.1 to 0.5 µM. In addition, the “Degradation of substrate protein CDK4 (substrate protein remaining %)” value in test [4] was “A (A is defined as 0% ≤ substrate protein remaining % ≤ 80%)”. In addition, the “Degradation of substrate protein CDK6 (substrate protein remaining %)” value in test [5] is given as “A (A is defined as 0% ≤ substrate protein remaining % ≤ 80%)”.
For `CC(=O)c1c(C)c2cnc(Nc3ccc(N4CCN(Cc5ccc(N6CCC(=O)NC6=O)cn5)CC4)cn3)nc2n(C2CCCC2)c1=O` [GT-06578, 1-(6-((4-(6-((6-acetyl-8-cyclopentyl-5-methyl-7-oxo-7,8-dihydropyrido[2,3-d]pyrimidin-2-yl)amino)pyridin-3-yl)piperazin-1-yl)methyl)pyridin-3-yl)dihydropyrimidine-2,4(1H,3H)-dione], the IC50 in test [3] is 0.5 to 1 µM. Besides, the “Degradation of substrate protein CDK4 (substrate protein remaining %)” value in test [4] is reported as “B (B is defined as substrate protein remaining % > 80%)”. The “Degradation of substrate protein CDK6 (substrate protein remaining %)” value in test [5] was “A (A is defined as 0% ≤ substrate protein remaining % ≤ 80%)”.
As to `CN(C)C(=O)c1cc2cnc(Nc3ccc(N4CCN(Cc5cncc(C6CCC(=O)NC6=O)c5)CC4)cn3)nc2n1C1CCCC1` (centres unmarked) [GT-07479, 7-cyclopentyl-2-((5-(4-((5-(2,6-dioxopiperidin-3-yl)pyridin-3-yl)methyl)piperazin-1-yl)pyridin-2-yl)amino)-N,N-dimethyl-7H-pyrrolo[2,3-d]pyrimidine-6-carboxamide], in test [6], the inhibition at 0.5 µM is 53 to 60% and the inhibition at 2 µM was in the range of 80 to 100%. For the same compound, the “Degradation of substrate protein CDK4 (substrate protein remaining %)” value in test [4] was “A (A is defined as 0% ≤ substrate protein remaining % ≤ 80%)”. Besides, the “Degradation of substrate protein CDK6 (substrate protein remaining %)” value in test [5] is reported as “A (A is defined as 0% ≤ substrate protein remaining % ≤ 80%)”.
With `CN(C)C(=O)c1cc2cnc(Nc3ccc(N4CCN(Cc5ccnc(N6CCC(=O)NC6=O)c5)CC4)cn3)nc2n1C1CCCC1` [GT-07475, 7-cyclopentyl-2-((5-(4-((2-(2,4-dioxotetrahydropyrimidin-1(2H)-yl)pyridin-4-yl)methyl)piperazin-1-yl)pyridin-2-yl)amino)-N,N-dimethyl-7H-pyrrolo[2,3-d]pyrimidine-6-carboxamide], in test [4], the “Degradation of substrate protein CDK4 (substrate protein remaining %)” value is recorded as “A (A is defined as 0% ≤ substrate protein remaining % ≤ 80%)”. In addition, the IC50 in test [7] was in the range of 0.5 to 1 µM. The “Degradation of substrate protein CDK6 (substrate protein remaining %)” value in test [5] is recorded as “A (A is defined as 0% ≤ substrate protein remaining % ≤ 80%)”.
As to `CN(C)C(=O)c1cc2cnc(Nc3ccc(N4CCN(Cc5ccc(N6CCC(=O)NC6=O)cn5)CC4)cn3)nc2n1C1CCCC1` [GT-06342, 7-cyclopentyl-2-((5-(4-((5-(2,4-dioxotetrahydropyrimidin-1(2H)-yl)pyridin-2-yl)methyl)piperazin-1-yl)pyridin-2-yl)amino)-N,N-dimethyl-7H-pyrrolo[2,3-d]pyrimidine-6-carboxamide], the “Degradation of substrate protein CDK4 (substrate protein remaining %)” value in test [4] is listed as “A (A is defined as 0% ≤ substrate protein remaining % ≤ 80%)”. The “Degradation of substrate protein CDK6 (substrate protein remaining %)” value in test [5] is listed as “A (A is defined as 0% ≤ substrate protein remaining % ≤ 80%)”.
Regarding `CN(C)C(=O)c1cc2cnc(Nc3ccc(N4CCN(Cc5ccc(C6CCC(=O)NC6=O)cn5)CC4)cn3)nc2n1C1CCCC1` (centres unmarked) [GT-07477, 7-cyclopentyl-2-((5-(4-((5-(2,6-dioxopiperidin-3-yl)pyridin-2-yl)methyl)piperazin-1-yl)pyridin-2-yl)amino)-N,N-dimethyl-7H-pyrrolo[2,3-d]pyrimidine-6-carboxamide], in test [6], the inhibition at 0.5 µM fell in the range of 20 to 30% and the inhibition at 2 µM fell in the range of 60 to 80%. The “Degradation of substrate protein CDK4 (substrate protein remaining %)” value in test [4] is “A (A is defined as 0% ≤ substrate protein remaining % ≤ 80%)”. Moreover, the “Degradation of substrate protein CDK6 (substrate protein remaining %)” value in test [5] is “A (A is defined as 0% ≤ substrate protein remaining % ≤ 80%)”.
